What is called IC50 is the point on the concentration scale where inhibition reaches its midpoint.

SMILES strings stand for the structures.

The test deals with T1, Histone deacetylase 8 (Homo sapiens, UniProt Q9BY41).
T1 sequence (Q9BY41 whole entry): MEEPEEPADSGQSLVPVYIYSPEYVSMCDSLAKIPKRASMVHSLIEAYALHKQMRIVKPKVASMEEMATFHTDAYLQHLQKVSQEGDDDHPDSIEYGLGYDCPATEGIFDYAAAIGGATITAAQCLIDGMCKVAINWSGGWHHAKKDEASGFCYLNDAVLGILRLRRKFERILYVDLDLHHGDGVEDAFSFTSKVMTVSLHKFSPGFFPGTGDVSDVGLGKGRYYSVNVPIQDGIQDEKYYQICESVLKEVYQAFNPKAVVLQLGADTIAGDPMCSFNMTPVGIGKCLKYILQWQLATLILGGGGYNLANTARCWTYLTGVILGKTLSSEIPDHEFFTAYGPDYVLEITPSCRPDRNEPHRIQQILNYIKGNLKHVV
Put plainly: Inhibition of Homo sapiens (human) HDAC8.
As to `COc1ccc(N)c(NC(=O)c2ccc(CNC(=O)OCc3cccnc3)cc2)c1`, the IC50 is 4600 nM.
The figure for `O=C(NCc1ccc(C(=O)Nc2ccccc2)cc1)OCc1cccnc1` is > 100000 nM.
As for `Nc1ccc(NC(=O)c2ccc(CNC(=O)OCc3cccnc3)cc2)cc1`, the half-inhibitory concentration (IC50) is > 100000 nM.
As for `Cc1ccc(N)c(NC(=O)c2ccc(CNC(=O)OCc3cccnc3)cc2)c1`, it took 2800 nM to reach half-maximal inhibition (IC50).
As for `O=C(/C=C/c1ccc(Cc2ccc(CO)cc2)cc1)NO`, the figure is 20 nM; as for `O=C(/C=C/c1ccc(Cc2ccc(O)c(Cl)c2)cc1)NO`, 460 nM.
As for `O=C(CCCCCCCN1C(=O)c2ccccc2C1=O)NO`, the figure is 71.4 nM; as for `O=C(CCCCCCCCC(=O)c1ccccc1)NO`, 135 nM.
As for `O=C(CCCCCCCC(=O)c1cccnc1)NO`, the figure is 153 nM; as for `COc1ccccc1C(=O)CCCCCCCC(=O)NO`, 95 nM.
`COc1ccc(C(=O)CCCCCCCC(=O)NO)cc1` came in with an IC50 of 15 nM.
As for `O=C(CCCCCCCC(=O)c1ccc(C(F)(F)F)cc1)NO`, the figure is 45 nM; as for `O=C(CCCCCCCC(=O)c1ccc(Br)cc1)NO`, 45 nM; as for `O=C(CCCCCCCC(=O)c1ccc(-c2ccccc2)cc1)NO`, 5 nM.
As for `O=C(CCCCCCC/C(=N\O)c1ccc2ccccc2c1)NO`, the figure is 8.5 nM.
The figure for `O=C(CCCCCCC/C(=N\O)c1ccc(-c2ccccc2)cc1)NO` is 4 nM.
As to `C=C(CCCCCCCC(=O)NO)c1ccc2ccccc2c1`, the IC50 was 8 nM.
For the compound `O=C(CCCCCCCC(=O)c1ccc(-c2ccc(Br)cc2)cc1)NO`, the IC50 is 2 nM.
The figure for `O=C(CCCCCCCC(=O)c1ccc(N2CCCCC2)cc1)NO` is 9.5 nM; for `O=C(CCCCCCCC(=O)c1ccc(N2CCN(c3ccccc3)CC2)cc1)NO` it is 4.5 nM.
The figure for `CC(CCCCCC(=O)c1ccc2ccccc2c1)C(=O)NOCCCCC(=O)NO` (stereo unspecified) is 600 nM.
The compound `O=C(CCCCCC/C=C/c1ccc2ccccc2c1)NO` came in with an IC50 of 6 nM.
On to `O=C(CCCCCCCCc1ccc2ccccc2c1)NO`, for which the IC50 was determined as 25 nM.
As for `O=C(CCCCCCCC(O)c1ccc2ccccc2c1)NO` (stereo unspecified), the figure is 35 nM; as for `C/C(=C\Cc1ccc(NS(=O)(=O)c2ccccc2)cc1)CC(=O)NO`, 2000 nM.
The figure for `CC(C)(C)c1ccc(CS(=O)(=O)Nc2ccc(/C=C\C(=O)NO)cc2)cc1` is 100 nM; for `CC(C)c1cc(C(C)C)c(C(C)C)cc1CS(=O)(=O)Nc1ccc(/C=C\C(=O)NO)cc1` it is 600 nM.
As for `COc1ccc(CS(=O)(=O)Nc2ccc(/C=C\C(=O)NO)cc2)cc1`, the figure is 60 nM; as for `COc1ccc(CS(=O)(=O)Nc2ccc(/C=C\C(=O)NO)cc2)cc1OC`, 90 nM; as for `O=C(NO)c1ccc(CCCc2ccccc2)cc1`, 1000 nM.
With `Cc1ccc(NC(=O)c2ccc(CNC(=O)OCc3cccnc3)cc2)c(N)c1`, the IC50 was > 100000 nM.
As for `Cc1ccc(S(=O)(=O)Nc2ccc(/C=C/C(=O)NO)cc2)cc1`, the figure is 300 nM; as for `O=C(Cc1ccc(NS(=O)(=O)c2ccccc2)cc1)NO`, 900 nM.
The figure for `Nc1cc(Cl)ccc1NC(=O)c1ccc(CNC(=O)OCc2cccnc2)cc1` is 40000 nM; for `COc1ccc(NC(=O)c2ccc(CNC(=O)OCc3cccnc3)cc2)c(N)c1` it is 44000 nM; for `Nc1ccc(Cl)cc1NC(=O)c1ccc(CNC(=O)OCc2cccnc2)cc1` it is 7700 nM.
The figure for `O=C(NCc1ccc(C(=O)Nc2ccccc2O)cc1)OCc1cccnc1` is 2200 nM; for `Nc1ccc(F)cc1NC(=O)c1ccc(CNC(=O)OCc2cccnc2)cc1` it is 6000 nM.
With `O=C(/C=C/C=C/c1ccc(-c2ccccc2)cc1)NO`, the IC50 was > 5000 nM.
The figure for `CC(=O)c1cc(/C=C/C(=O)NO)n(C)c1` is 11300 nM.
As for `Cn1cc(C=O)cc1CCC(=O)NO`, the figure is 52600 nM; as for `Cn1cc(C(=O)Cl)cc1/C=C/C(=O)NO`, 9650 nM; as for `O=C(CCc1ccc(-c2ccc(O)cc2)cc1)NO`, 1700 nM.
In the case of `Cn1cc(C=O)cc1/C=C/C(=O)NO`, the IC50 came to 12300 nM.
The compound `O=C(/C=C/c1cccc(-c2ccc(O)cc2)c1)NO` yielded an IC50 of 320 nM.
As for `O=C(CCCCCCC(=O)c1ccc2ccccc2c1)NO`, the figure is 35 nM; as for `COc1ccc(C(=O)CCCCCCC(=O)NO)cc1`, 450 nM.
As for `O=C(/C=C/c1ccc(NS(=O)(=O)c2ccc(Cl)cc2Cl)cc1)NO`, the figure is 300 nM.
As for `O=C(/C=C/c1ccc(NS(=O)(=O)c2ccc(Cl)c(Cl)c2)cc1)NO`, the figure is 100 nM; as for `O=C(CCCCCC(=O)c1ccccc1)NO`, 1500 nM.
In turn, `O=C(CCCCCCC(=O)c1ccccc1)NO` had an IC50 of 500 nM.
On to `O=C(CCc1ccc(NS(=O)(=O)c2ccccc2)cc1)NO`, for which the IC50 is 100 nM.
Turning to `Nc1cccc(NC(=O)c2ccc(CNC(=O)OCc3cccnc3)cc2)c1`, the IC50 was > 100000 nM.
`O=C(CCCCCCCC(=O)c1ccccc1)NO` gave an IC50 of 65 nM.
The figure for `CC(=O)Nc1ccccc1NC(=O)c1ccc(CNC(=O)OCc2cccnc2)cc1` is > 100000 nM; for `Cc1cccc(NC(=O)c2ccc(CNC(=O)OCc3cccnc3)cc2)c1N` it is > 100000 nM.
